Data from EP1153612A1, “ANTICANCER AGENT POTENTIATORS” (Tsuruo, Takashi, priority 1999, dated 2000).

How the values were obtained:
[1] = tested on: human colon adenocarcinoma cell HT-29; assay: Sensitivity of cells to anticancer drug by colony formation method (M phase-synchronized cells, with or without proteasome inhibiting agent); type: cell-based; conditions: etoposide 5, 10, and 15 µg/ml, 1 hour, FIG. 1
Method: In the glucose starvation environment found in the solid cancer, the effect of combined use of the proteasome inhibitor in a human colon adenocarcinoma cell HT-29 with the anticancer drug targeting topoisomerase II was tested.
Concerning culture media, for a culture condition in a normal state, RPMI 1640 medium (Nissui Pharmaceutical Co.-made) to which a 5% FBS (fetal bovine serum) was added and for the culture condition in the glucose starvation state symbolically found in the solid cancer, RPMI 1640 medium (Lifetech Oriental-made), lacking glucose, in which the 5% FBS was added were used, respectively. Culture was carried out using a CO2 incubator (Tabai Espec-made) under conditions of 5% CO2/95% air and humidity 100%.
In order to test sensitivity to the anticancer drug, the cell cycle synchronization culture methodwas employed. Nocodazol (Sigma made) was used to synchronize the cell cycle, cells in a logarithmic proliferation phase were treated with 40 ng/ml Nocodazol for 9 hours, and cells accumulated in cell division phase (Mpahse) were collected by gentle pipetting. M phase-synchronized cells collected through these steps were washed with PBS (phosphate buffered saline) followed by inoculation of 1×10^5 cells per well of 12 well-culture plate.
M phase-synchronized cells were cultured under the normal condition and the glucose starvation condition to conduct treatments with the proteasome inhibiting agent and the anticancer drug as follows. For cells under the glucose starvation condition, the culture medium, to which the proteasome inhibiting agent and the protease inhibiting agent not inhibiting proteasome were added as the control group, and the culture medium, to which no inhibiting agent has been added, was used. For cells under the normal condition, the culture medium, to which each inhibiting agent was not added, was used. After inoculation of cells, culture was carried out for 13 hours in each culture medium. […]
Sensitivity of cells to the anticancer drug was measured using the colony formation method. As described above, cells treated with the proteasome inhibiting agent and the anticancer drug were washed with PBS followed by soaking in trypsin (Lifetech Oriental made) solution and removed from a culture dish to suspend in an ordinary culture medium. These cells were inoculated again in 500 to 5000 cells for a 10 cm culture dish and cultured for 10 to 12 days to form a colony. The colony formed was fixed by 10% formaldehyde solution and stainedwith 0.01% crystal violet (Wako Pure Chemicals made) solution. Number of colony was counted and a Cell survival rate was calculated assuming that the number of colonies untreated with the anticancer drug is 1.
For reference, the proteasome inhibiting agent and the protease inhibiting agent not inhibiting proteasome used as described above were as follows. • (1) Proteasome inhibiting agent • . […] MG115 (carbobenzoxy-L-Leucyl-L-Leucyl-L-Norvalinal): final concentration 2.5 µM (Peptide Institute Inc. made) • . MG132 (carbobenzoxy-L-Leucyl-L-Leucyl-Leucinal) : final concentration 2.5 µM (Peptide Institute Inc. made) • . Lactacystin, final concentration 10 µM (Kindly supplied from The Kitasato Institute made) • (2) Protease inhibiting agent not inhibiting proteasome • . E64, final concentration 25 µM (Peptide Institute Inc. made) • . ZLLal (carbobenzoxy-L-Leucyl-L-Leucinal): final concentration 25 µM (Peptide Institute Inc. made)
The cell culture condition for both M phase-synchronized culture method and culture under the glucose starvation condition was as described in Example 1. M phase-synchronized cells were cultured in the culture medium, to which lactacystin of the final concentration 10 µM was added, or the culture medium, to which this was not added, as the proteasome inhibiting agent under the ordinary condition and the glucose starvation condition, respectively, for 13 hours. […]

[2] = tested on: human colon cancer cell HT29; assay: Anticancer therapy in human cancer cell-transplanted nude mouse model (size of tumor lump); type: in vivo, nude mouse BALB/cAnNCrj-nu/nu; conditions: Example 5; intraperitoneally three times every 4 days; etoposide 33 mg/kg, lactacystin 40 mg/kg; in combined use lactacystin 5 hours before etoposide; FIG. 11
Source text: A human colon cancer cell HT29 was transplanted subcutaneously to a nude mouse to examine a therapeutic effect of combined use of lactacystin, the proteasome inhibiting agent, with etoposide, the anticancer drug targeting topoisomerase II.
As an experimental animal, the nude mouse BALB/cAnNCrj-nu/nu of 8-week old female (Charles River Laboratories product) was used. In order to form a tumor lump in the nude mouse, 1×10^7 HT29 cells was subcutaneously transplanted. After 8 to 10 days of transplanting, the tumor lump of HT29 cells grew to […] and at this point, the therapy was started. […]
The therapy was conducted by dividing the HT29 tumor-transplanted mice into 4 groups to assign 4 animals to 1 group as follows by administering intraperitoneally three times every 4 days: (1) control group untreated with saline, (2) etoposide 33 mg/kg, (3) lactacystin 40 mg/kg, (4) lactacystin 40 mg/kg and etoposide 33 mg/kg. […] Since start of the therapy, a size of the tumor lump was measured to measure effect of the therapy by administration of drugs once every 4 days. […]
The effect of therapy by simultaneous administration of the proteasome inhibiting agent, lactacystin, and the topoisomerase II-targeting anticancer, doxorubicin was examined. […] After start of treatment, once every 4 to 5 days, the size of the tumor lump was measured to measure the effect of treatment by drug administration.

topoisomerase I = assay: Amount of expression of topoisomerase I in whole cell extract by western blotting; type: cell-based, human; conditions: ordinary and glucose starvation condition; 2.5, 5, and 10 µM; FIG. 17(a)
Method: The cell culture condition for both M phase-synchronized culture method and culture under the glucose starvation condition was as described in Example 1. M phase-synchronized cells were cultured in the culture medium, to which lactacystin of the final concentration 10 µM was added, or the culture medium, to which this was not added, as the proteasome inhibiting agent under the ordinary condition and the glucose starvation condition, respectively, for 13 hours. […] In order to examine sensitivity of cells against the topoisomerase I inhibiting agent, camptothecin (Yakult made), the drug was added to the culture medium to continue further culturing for 4 hours. Sensitivity of cells was measured by applying the colony formation method described in Example 1. On the other hand, the amount of expression of topoisomerase I that is the target molecule of camptothecin was measured by preparing the whole cell extract solution as described in Example 2 followed by the western blotting method. For reference, in measuring the amount of expression of topoisomerase I, regarding the proteasome inhibiting agents, clasto-lactacystin β lactone (Boston Biochem made), which is an activated form of lactacystin, was used in the final concentration of 2.5, 5, and 10 µM. Meanwhile, as the antibody against human topoisomerase I, a mouse monoclonal antibody established by Tsuruo et al. was used.

topoisomerase IIα = assay: Amount of expression of topoisomerase IIα in whole cell extract by western blotting; type: cell-based, human; conditions: glucose starvation condition; 2.5, 5, and 10 µM; FIG. 17(b)
Source text: Topoisomerase II inhibiting anticancer drug stabilizes a complex (cleavable complex) consisting of the DNA and topoisomerase IIα occurring in a catalytic reaction process of topoisomerase IIα to cause DNA damage. Therefore, cell-killing effect of the topoisomerase II-inhibiting anticancer drug depends on the amount of intracellular expression of topoisomerase IIα essential for formation of the cleavable complex. Then, the amount of expression of topoisomerase IIα in the cultured cancer cell under the glucose starvation and hypoxia environment that are found in the solid cancer and the effect of the proteasome inhibiting agent to the amount of expression were examined.
The culture condition of cells is same as that described in Example 1 including the M phase synchronous culture method and culture under the glucose starvation condition. Culture under hypoxia condition, that is found in the solid cancer, similar to glucose starvation was carried out using the culture medium (that prepared by adding 5% FBS to RPMI1640 culture medium) under the ordinary condition in a Gaspack 100 anaerobic system (Becton Dickinson made). Culture under the glucose starvation condition and hypoxia condition was carried out for 14 hours .
With the purpose to prepare a whole cell extract solution, cells culture under the above described condition were washed with an ice-cooled PBS twice and then, cells were removed from the culture dish by using a cell scraper (Sumitomo Bakelite made) for collection. Cells collected were precipitated by centrifugation and then, dissolved in an SDS sample buffer to collect as the extract solution from all cells. For reference, the composition of the SDS sample buffer was 10% v/v, glycerol, 5% 2-mercaptoethanol, 2% SDS (sodium lauryl sulfate), and 62.5 mM tris-hydrochloric acid (pH 6.8).
The amount of topoisomerase IIα in the extract solution from all cells was measured by the western blotting method. The extract solution from all cells containing a total protein quantity of 30 µg was put on an SDS polyacrylamide gel (4-20 Multigel: Daiichi Pure Chemicals K.K. made) and subjected to electrophoresis in an electrophoresis buffer (25 mM tris, 192 mM glycine, and 0.1% SDS) in a 40 mA constant current for 1 hour. Subsequently, blotting was carried out in 4°C blotting buffer (25 mM tris, 192 mM glycine, and 20% methanol) in a 50 V constant voltage for 12 hours to transfer a protein separated in the SDS polyacrylamide gel to a nitrocellulose membrane. This nitrocellulose membrane was soaked in a blocking buffer (0.1% Tween 20, 4% skim milk-added PBS) for 1 hour to carry out blocking. The nitrocellulose membrane blocked was soaked in a solution, that was prepared by adding anti-topoisomerase IIα antibody (Cambridge Research Biochemicals Corp. made) of the final concentration 1 µg/ml as the primary antibody to the blocking buffer solution, for 1 hour. The nitrocellulose membrane was washed with the blocking buffer three times (5 minutes once), and then, soaked in the solution, in which a 1/1000 volume of an antimouse antibody (Amersham Pharmacia Biotech made) labeled with horse radish peroxidase as a secondary antibody had been added to the blocking buffer, for 1 hour. The nitrocellulose membrane was washed with the blocking buffer three times (5 minutes once), and then, washed with the PBS, to which 0.1% Tween 20 was added, three times (5 minutes once). The nitrocellulose membrane after completion of antibody reaction and washing was treated with the ECL reagent (Amersham Pharmacia Biotech made) after a handling manual and a topoisomerase IIα-specific signal was detected on an X-OMAT™AR film (Kodakmade). For reference, steps after blotting was carried out in a room temperature. […]
The cell culture condition for both M phase-synchronized culture method and culture under the glucose starvation condition was as described in Example 1. […]

| Compound | Cell survival (colony formation) with etoposide ([1]; glucose starvation condition) | Cell survival (colony formation) with etoposide ([1]; ordinary culture condition) | suppression of tumor proliferation (size of the tumor lump) [2] | amount of expression of topoisomerase I (topoisomerase I) | amount of expression of topoisomerase IIα (topoisomerase IIα) |
| --- | --- | --- | --- | --- | --- |
| COc1cc([C@@H]2c3cc4c(cc3[C@@H](O[C@@H]3O[C@@H]5CO[C@@H](C)O[C@H]5[C@H](O)[C@H]3O)[C@H]3COC(=O)[C@H]23)OCO4)cc(OC)c1O [etoposide] | cells showed resistance against etoposide to survive | almost all HT29 cells died | less suppression of tumor proliferation | – | – |
| CC(C)[C@H](O)[C@@]12NC(=O)[C@H](C)[C@@H]1OC2=O [activated type of lactacystin, clasto-lactacystin β lactone] | – | – | – | does not change | the lowering of expression is perfectly inhibited |
